Values of other authors in patent US12150969B2, “Synthetically enveloped virus” (priority 2016, dated 2024).

Experiments:
[1] = tested on: Ras
[2] = tested on: Ras-dependent tumor growth; conditions: established cancer models

**Q.** What does the source list for CC(C)=CCC/C(C)=C/CC/C(C)=C/CSc1ccccc1C(=O)O [FTS, S-trans, trans-farnesylthiosalicylic acid]?
**A.** Ras antagonist activity [1]: potent and especially nontoxic Ras antagonist; tumor growth and toxicity in animals [2]: inhibition of tumor growth in animals with no adverse toxicity
